According to US6548543B1, “Remedies or preventives containing cyclopentenone compounds as the active ingredient” (Takara Shuzo Co., Ltd., priority 1998, dated 2003):
pIC50: −log10 of the molar value. In brackets after ≈: the same amount, converted by molar mass. Numbered stars: 1 amine (or outer) side, 2 acyl side, 3 side chain; on linkers, the order of the positions; unused ones are H or OH. Bridge positions count the residues as written; N and C are the ends. Square brackets hold non-standard residues; d marks the D form. Peptide text beside a SMILES is read from it. I, II: the chains in the order shown. Actinocin(9to1) = Cc1c2oc3c(C)ccc(C(=O)[*:1])c3nc-2c(C(=O)[*:2])c(N)c1=O; NMeV = CN[C@H](C(=O)O)C(C)C; Sar = CNCC(=O)O

Legend:
[1] = system: HL-60 (ATCC CCL-240) cells; experiment: Viability and apoptosis of HL-60 cells (Trypan Blue, optical microscope); assay type: cell-based; settings: 24 hours; for pIC50: Homo sapiens, Trypan Blue, read-out: Viability50 (concentration that results in a viability of 50%)
Method: HL-60 (ATCC CCL-240) cells were cultured at 37° C. in RPMI 1640 medium (Bio Whittaker) containing 10% fetal calf serum (FCS; JRH) which had been treated at 56° C. for 30 minutes and suspended in RPMI 1640 medium at a concentration of 2.5×10^5 cells/5 ml.
10 μl each of solutions of diisobutyrylcyclopentenone, dimethoxyacetylcyclopentenone, dimethylfumarylcyclopentenone or dimethylmaleylcyclopentenone in 70% ethanol in water diluted to varying concentrations was added to 5 ml of the suspension. The mixtures were incubated at 37° C. for 24 hours in the presence of 5% Co2. 10 μl of aqueous actinomycin D (Sigma) solution (0.5 mg/ml), which is known as a reagent that induces apoptosis, was used in place of the sample and the mixture was incubated under the same conditions for confirmation.
The cultured cells were examined under an optical microscope.
Furthermore, a portion of the cells cultured as described above was stained with 0.4% Trypan Blue and examined under an optical microscope. The number of viable cells which were not stained and the number of dead cells which were stained blue were counted. The concentration of each of the samples that results in a viability of 50% (Viability50 μM) was determined.

[2] = system: 70-kDa heat shock protein; experiment: Induction of 70-kDa heat shock protein in HL-60 cells (Western blot); assay type: cell-based; set-up: key to Degree of induction of 70-kDa heat shock protein: − means that no induction was observed; ± means that a slight induction was observed; + represents the induction level; ++: Increased number of + means increased induction; +++: Increased number of + means increased induction; settings: for Degree of induction of 70-kDa heat shock protein: HL-60, 6 hours
Method: (1) 5 ml of RPMI 1640 medium containing 10% fetal calf serum and HL-60 (ATCC CCL-240) cells at a concentration of 2×10^5 cells/ml was placed in each well of a 6-well plate. The plate was incubated at 37° C. for 24 hours in the presence of 5% CO2. Dipropionylcyclopentenone, diisobutyrylcyclopentenone or di-2-hexenoylcyclopentenone at a final concentration of 0, 0.63, 1.3, 2.5, 5, 10 or 20 μM was then added thereto. The incubation was continued for additional 6 hours.
After incubation, the cell number was counted. The cells were harvested by centrifugation, washed with PBS to prepare cells treated with one of the samples. Cells that were cultured in the same manner after heated at 45° C. for 10 minutes were also prepared.
These treated cells were used for SDS-PAGE according to the method as described in Molecular Cloning [Cold Spring Harbor Laboratory Press (1989)]. The treated cells were suspended in SDS-PAGE Sample buffer at a concentration of 2.5×10^6 cells/ml. The cell suspensions were treated at 100° C. for 10 minutes. 5 μl each of the cell suspensions was applied to two SDS-PAGE gels (5% stacking gel, 10% separation gel) and electrophoresed. One of the gels was subjected to Coomassie staining. The other gel was blotted onto a polyvinylidene difluoride transfer membrane (Immobilon™, Millipore, Cat. #IPVH000-10). The membrane was blocked at 4° C. overnight using Block Ace (Dainippon Pharmaceutical, Cat. #UK-B25).
The blocked membrane was reacted with a monoclonal antibody HSP72/73(Ab-1) (Oncogene Research Products, Cat. #HSP01), which specifically reacts with heat-inducible 70-kDa heat shock protein. The membrane was washed with TBS containing 0.05% Tween 20 followed by TBS. The membrane was then reacted with a peroxidase-conjugated secondary antibody HRP-Rabbit Anti-Mouse IgG (H+L) (Zymed Laboratories, Inc., Cat. #61-6520), and then washed as described above. The membrane reacted with the primary and secondary antibodies was reacted with a chemiluminol reagent Renaissance™ (Dupont NEN, Cat. #NEL-100). The membrane was then exposed to an X-ray film to confirm the induction of 70-kDa heat shock protein.

[3] = system: Candida albicans TIMM0136; experiment: Antifungal activity, growth inhibition; assay type: cell-based; settings: 10 μl of solution at 100 or 500 μg/ml added to 100 μl culture, 30° C., 48 hours
Method: Dipropionylcyclopentenone, diisobutyrylcyclopentenone and di-2-hexenoylcyclopentenone were used to examine their antifungal activities against Candida albicans TIMM0136.
Candida albicans cells were cultured overnight in YNBG medium containing 0.67% Yeast Nitrogen Base (Difco) and 1.0% glucose (seed culture). The culture was then diluted with fresh Yeast Nitrogen Base medium to a concentration of 1×10^6 cells/ml. 100 μl of the dilution was dispensed into each well of a 96-well microtiter plate.
10 μl each of solutions of dipropionylcyclopentenone, diisobutyrylcyclopentenone or di-2-hexenoylcyclopentenone in 70% ethanol at a concentration of 100 μg/ml or 500 μg/ml, or 10 μl of 70% ethanol solution was added to the well. The plate was incubated without shaking at 30° C. for 48 hours (main culture).

[4] = system: tumor necrosis factor (TNF)-α; experiment: Endotoxin shock model, serum TNF-α after LPS; assay type: in vivo, CDF1 mice; settings: serum 1.5 hours after LPS
Method: (1) A model for endotoxin shock was constructed using CDF1 mice (8 weeks old, female, purchased from Japan SLC). Distilled water (control), or 10 mg/kg of diisopropionylcyclopentenone or diisobutyrylcyclopentenone was subcutaneously administered to a mouse. 20 μg of lipopolysaccharide (LPS; Sigma) was intraperitoneally administered to each mouse 30 minutes after the administration. Blood was collected from the mouse 1.5 hours after the administration with LPS. The amount of tumor necrosis factor (TNF)-α in a serum separated from the collected blood was measured using a commercially available ELISA kit (R&D). Each group consisted of 4 mice.
(2) A model for endotoxin shock was constructed by intraperitoneally administering 20 μg of LPS to a CDF1 mouse (8 weeks old, female). 30 or 100 mg/kg of dipropionylcyclopentenone or diisobutyrylcyclopentenone was orally administered 30 minutes before the administration with LPS. Blood was collected from the mouse 1.5 hours after the administration with LPS. The amount of TNF-α in a serum separated from the collected blood was measured using an ELISA kit. Each group consisted of 4 mice.

[5] = system: Ehrlich ascites carcinoma (EAC); experiment: Ascitic cancer EAC, prolongation of survival; assay type: in vivo, ddY mouse; settings: 5 successive days; for 30-day survival number: groups of 8 mice
Method: (§1) (3) The carcinostatic activities of dipropionylcyclopentenone and diisobutyrylcyclopentenone against various ascitic cancers were examined using two types of cancer cells, Ehrlich ascites carcinoma (EAC) and Meth A, administered intraperitoneally or orally at a varying dose.
(§2) Dipropionylcyclopentenone or diisobutyrylcyclopentenone was intraperitoneally or orally administered for 5 successive days from the day after the transplantation with cancer cells. Injectable distilled water was administered to a control group in a similar manner. Average days of survival, prolongation rate and 30-day survival number were calculated for groups each consisting of 8 mice.

[6] = Single oral dose toxicity; assay type: in vivo; settings: mouse
Method: No toxicity is observed when a physiologically effective amount of the cyclopentenone derivative or an optical isomer thereof, or a salt thereof obtained according to the present invention is administered.

[7] = system: Meth A; experiment: Ascitic cancer Meth A, prolongation of survival, 5 successive days; assay type: in vivo, BALB/c mouse; settings: intraperitoneal 10 mg/kg
Method: as §1, §2

[8] = system: λ-carrageenan pedal edema; experiment: Carrageenan induced pedal edema; assay type: in vivo, Lewis rats; settings: rat, 3 hours after carrageenan
Method: Lewis rats (male, 9 weeks old, weighing about 250 g) were purchased from Seac Yoshitomi.
Rats were fasted from 18 hours before the start of the experiments. Dipropionylcyclopentenone, dihexanoylcyclopentenone, di-2-hexenoylcyclopentenone, diisobutyrylcyclopentenone or dibenzoylcyclopentenone dissolved in olive oil (Nacalai Tesque) was orally administered to 4 rats per group at 1 or 10 mg/10 ml/kg.
100 μl of 1% λ-carrageenan (Wako Pure Chemical Industries) suspension in saline (Otsuka Pharmaceutical) was injected into the sole of right paw of a rat 0.5 hour after the administration of test substance to induce pedal edema. The volume of the right foot of the rat was measured using an instrument for measuring pedal volume (Ugo Basile) 3 hours after the injection with carrageenan. The measurements were expressed as the rate of increase calculated based on the volume of the right foot of each rat measured before the administration with carrageenan.
FIG. 5 illustrate the relationship between the amount of cyclopentenone derivative administered and the rate of increase in edema in foot. The horizontal axis represents the dose […] and the vertical axis represents the rate of increase (%).

[9] = oral, single dosage of 100 mg/kg

## CC(C)C(=O)OC1C=CC(=O)C1OC(=O)C(C)C (stereo not drawn) [Diisobutyrylcyclopentenone, diisobutyrylcyclopentenone]
[1]
  pIC50: 5.06
[2]
  Concentration at which ability to induce HSP70 is maximized: 2.5 µM
  Concentration at which ability to induce HSP70 is observed: 1.25 µM
[2]; 0.63 μM
  Degree of induction of 70-kDa heat shock protein: ±
[2]; 1.3 μM
  Degree of induction of 70-kDa heat shock protein: +
[2]; 2.5 μM
  Degree of induction of 70-kDa heat shock protein: +++
[2]; 5 μM
  Degree of induction of 70-kDa heat shock protein: +++
[2]; 10 μM
  Degree of induction of 70-kDa heat shock protein: +
[2]; 20 μM
  Degree of induction of 70-kDa heat shock protein: +
[3]; Candida albicans, TIMM0136, read-out: Minimum growth inhibitory concentration
  MIC: 500 µg/mL (≈ 1970 µM)
[4]; 10 mg/kg subcutaneous 30 minutes before LPS
  Amount of TNF mean ± SE: 3.39 ± 0.33 ng/mL
[4]; 30 mg/kg oral 30 minutes before LPS
  TNF mean ± SE: 3.92 ± 0.13 ng/mL
[4]; 100 mg/kg oral 30 minutes before LPS
  TNF mean ± SE: 2.48 ± 0.43 ng/mL
[5]; intraperitoneal 10 mg/kg
  Average days of survival: 17.0 days
  Prolongation rate: 136%
  30-day survival number: 0
[5]; intraperitoneal 30 mg/kg
  Average days of survival: 25.3 days
  Prolongation rate: >202%
  30-day survival number: 3
[5]; oral 30 mg/kg
  Average days of survival: 15.1 days
  Prolongation rate: 121%
  30-day survival number: 0
[5]; oral 100 mg/kg
  Average days of survival: 20.9 days
  Prolongation rate: 167%
  30-day survival number: 0
[6]; in vivo, po, 100 mg/kg
  Death after single oral administration: no death was observed
[7]
  Average days of survival: 15.5 days
  Prolongation rate: 132%
[7]; groups of 8 mice
  30-day survival number: 0

## COCC(=O)OC1C=CC(=O)C1OC(=O)COC (stereo not drawn) [Dimethoxyacetylcyclopentenone, dimethoxyacetylcyclopentenone]
[1]
  pIC50: 4.85

## COC(=O)/C=C/C(=O)OC1C=CC(=O)C1OC(=O)/C=C/C(=O)OC (stereo not drawn) [Dimethylfumarylcyclopentenone, dimethylfumarylcyclopentenone]
[1]
  pIC50: 5.54

## Cc1c2oc3c(C)ccc(C(=O)N[C@@H]4C(=O)N[C@H](C(C)C)C(=O)N5CCC[C@H]5C(=O)N(C)CC(=O)N(C)[C@@H](C(C)C)C(=O)O[C@@H]4C)c3nc-2c(C(=O)N[C@@H]2C(=O)N[C@H](C(C)C)C(=O)N3CCC[C@H]3C(=O)N(C)CC(=O)N(C)[C@@H](C(C)C)C(=O)O[C@@H]2C)c(N)c1=O [actinomycin D, reference compound] (I: T[dV]P[Sar][NMeV] / II: T[dV]P[Sar][NMeV]; ester I:1-I:C, II:1-II:C; linker I:N-II:N via Actinocin(9to1))
[1]; optical microscope
  Apoptosis-inducing / antiproliferation activity (condensation of nuclei, shrinking of cells, apoptotic bodies): Condensation of nuclei, shrinking of cells and formation of apoptotic bodies were observed

## di-2-hexenoylcyclopentenone
[2]; 0.63 μM
  Degree of induction of 70-kDa heat shock protein: ±
[2]; 1.3 μM
  Degree of induction of 70-kDa heat shock protein: +
[2]; 2.5 μM
  Degree of induction of 70-kDa heat shock protein: ++
[2]; 5 μM
  Degree of induction of 70-kDa heat shock protein: +++
[2]; 10 μM
  Degree of induction of 70-kDa heat shock protein: ±
[2]; 20 μM
  Degree of induction of 70-kDa heat shock protein: −
[3]
  Minimum growth inhibitory concentration: 500 µg/mL
[8]; 1 mg/kg oral
  Suppression of edema in foot (FIG. 5): significant suppression
[8]; 10 mg/kg oral
  Suppression of edema in foot (FIG. 5): significant suppression
[6]; [9]
  Death after single oral administration: no death was observed

## dihexanoylcyclopentenone
[8]; 1 mg/kg oral
  Suppression of edema in foot (FIG. 5): significant suppression
[8]; 10 mg/kg oral
  Suppression of edema in foot (FIG. 5): significant suppression
[6]; [9]
  Death after single oral administration: no death was observed
